Entries after “also recorded” stand apart in the source; their conditions may differ. Where two headings read alike, the source gives them in different places.
Key:
[1] = test system: primary normal human lung fibroblasts; test: apoptosis assay (Cell Death Detection ELISA-plus), lung fibroblasts; assay type: cell-based; settings: serum starvation, increasing concentrations
Description: (§1) A: Normal human lung fibroblast or distal lung epithelial cells were serum-starved overnight and then incubated with indicated concentration of IGF-1R antibody or IGFBP-3 overnight. B: A549 cells were serum-starved and incubated with IGF-1R antibody (136 μg/ml) with or without the indicated concentration of Fas ligand. Apoptosis was measured by Cell Death ELISA-plus ELISA (Roche Applied Science) per the manufacturer's directions. All experiments were done in triplicate and repeated at least twice. Apoptosis index is defined as the ratio of experimental condition OD405 nm: control (media alone) OD405 nm.
(§2) Primary normal human lung fibroblasts (Clonetics, Cambrex Bioscience, Rockland, Me.), primary distal lung human epithelial cells (Clonetics) or A549 (American Type Culture Collection, Manassas, Va.) were seeded in a 96-well tissue culture plate (2×10^4 cells/well) overnight and serum-starved for 24 hours. […] After 48 hours, apoptosis was measured. To prevent detached cells from being aspirated, plates were centrifuged at 200×g for 10 minutes, and apoptosis was measured using the Cell Death Detection ELISA-plus System (Roche Applied Science, Penzberg, Germany), which detects cytosolic histone-complexed DNA fragments. […]

[2] = test system: primary distal lung human epithelial cells; test: apoptosis assay (Cell Death Detection ELISA-plus), lung epithelial cells; assay type: cell-based; settings: serum starvation, increasing concentrations
Description: as §1, §2

IGF-1R [3] = target: T1, IGF-1R (Homo sapiens, UniProt P08069); settings: cited from earlier work
T1 sequence (P08069 31-1367, species assumed): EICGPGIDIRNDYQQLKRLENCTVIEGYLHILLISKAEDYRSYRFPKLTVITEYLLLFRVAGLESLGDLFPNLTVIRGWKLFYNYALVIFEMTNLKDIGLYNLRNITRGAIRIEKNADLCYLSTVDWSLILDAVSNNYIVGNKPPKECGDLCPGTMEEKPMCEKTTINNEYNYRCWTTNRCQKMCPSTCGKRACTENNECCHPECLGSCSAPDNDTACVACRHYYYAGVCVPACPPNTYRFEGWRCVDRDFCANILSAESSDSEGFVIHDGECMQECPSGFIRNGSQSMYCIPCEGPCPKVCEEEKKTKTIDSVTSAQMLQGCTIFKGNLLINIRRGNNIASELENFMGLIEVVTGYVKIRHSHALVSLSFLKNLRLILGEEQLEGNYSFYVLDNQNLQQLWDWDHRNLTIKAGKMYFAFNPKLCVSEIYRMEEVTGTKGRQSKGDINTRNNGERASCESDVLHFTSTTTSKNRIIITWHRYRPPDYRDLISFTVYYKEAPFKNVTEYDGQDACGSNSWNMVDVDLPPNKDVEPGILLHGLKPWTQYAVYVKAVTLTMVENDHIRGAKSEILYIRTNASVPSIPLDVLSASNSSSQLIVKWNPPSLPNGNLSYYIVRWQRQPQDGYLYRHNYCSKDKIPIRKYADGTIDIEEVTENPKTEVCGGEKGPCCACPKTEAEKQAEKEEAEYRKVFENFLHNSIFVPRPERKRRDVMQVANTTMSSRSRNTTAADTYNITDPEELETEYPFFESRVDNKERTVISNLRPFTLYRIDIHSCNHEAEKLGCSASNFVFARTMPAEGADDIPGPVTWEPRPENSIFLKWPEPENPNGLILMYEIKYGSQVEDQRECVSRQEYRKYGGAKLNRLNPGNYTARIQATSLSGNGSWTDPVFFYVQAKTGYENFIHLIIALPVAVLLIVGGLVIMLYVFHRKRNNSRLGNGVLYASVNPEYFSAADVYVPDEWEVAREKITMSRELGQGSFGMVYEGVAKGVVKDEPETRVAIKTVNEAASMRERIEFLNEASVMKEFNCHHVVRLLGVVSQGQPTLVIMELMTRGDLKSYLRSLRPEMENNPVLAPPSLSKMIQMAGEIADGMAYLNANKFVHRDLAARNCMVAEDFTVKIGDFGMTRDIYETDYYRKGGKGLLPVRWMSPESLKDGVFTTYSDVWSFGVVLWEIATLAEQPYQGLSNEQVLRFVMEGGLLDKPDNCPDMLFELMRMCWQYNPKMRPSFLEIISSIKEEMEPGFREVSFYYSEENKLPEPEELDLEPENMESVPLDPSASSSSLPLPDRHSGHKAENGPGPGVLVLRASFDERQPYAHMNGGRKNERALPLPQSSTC

IR [4] = settings: in vivo; cited from earlier work
[5] = test system: primary mouse lung fibroblasts; test: migration assay (FluoroBlok transwell); assay type: cell-based, C57BL6 mice
Description: Mouse lung fibroblasts were plated FluoroBlok transwell filters overnight, then IGF-1 (100 ng/ml), serum free media (negative control), 10% serum (positive control) was added to lower chamber. Some cells were preincubated with the blocking antibody to IGF-1R (A12, 40 μg/ml) before the addition of IGF-1. Cells were allowed to migrate through membrane for 4 hours @ 37° C. Migrated cells were counted with Fluorescent microscope. Each experiments was done in triplicate and repeated at least three times. Average cell count ±SD are presented.
For migration assays, primary mouse lung fibroblasts (50,000 cells/well) were plated in serum-free medium overnight on Fluoroblok transwell filters (8 μm pores, HTS FluoroBlok™ 24-Multiwell Insert System, BD Bioscience, Bedford, Mass.) pre-coated with fibronectin (50 μg/ml). Fluoroblok microporous membranes are specifically designed to detect by fluorescence only cells below the surface membrane. IGF-1 (100 ng/ml), 10% FBS (positive control) or serum-free media (negative control) was added to lower chamber. In some experiments, cells were preincubated with the blocking antibody to IGF-1R (A12, 40 μg/ml), for 1 hour. After 4 hours of migration, filters were fixed with formaldehyde and stained with DAPI (4′6-Diamidine-2′-phenylindole dihydrochloride, Roche, Indianapolis, Ind.). Migrated cells were counted in three predesignated fields for each filter. All experiments were done in triplicate and repeated at least three times.

human IGF-1R mRNA = settings: cited from earlier work
IGF-1R [6] = target: T1, IGF-1R; settings: cited from earlier work; remark: listed apart in the source
[7] = oxidation; cited from earlier work
IGF-1R [8] = target: T1, IGF-1R; settings: cited from earlier work; remark: listed apart in the source
β-tubulin = settings: interaction with β-tubulin, mitotic arrest; cited from earlier work
IR [9] = target: IR (Homo sapiens, UniProt P06213); settings: even at high concentrations; cited from earlier work
Sequence of IR (Homo sapiens, UniProt P06213) (P06213 28-1382): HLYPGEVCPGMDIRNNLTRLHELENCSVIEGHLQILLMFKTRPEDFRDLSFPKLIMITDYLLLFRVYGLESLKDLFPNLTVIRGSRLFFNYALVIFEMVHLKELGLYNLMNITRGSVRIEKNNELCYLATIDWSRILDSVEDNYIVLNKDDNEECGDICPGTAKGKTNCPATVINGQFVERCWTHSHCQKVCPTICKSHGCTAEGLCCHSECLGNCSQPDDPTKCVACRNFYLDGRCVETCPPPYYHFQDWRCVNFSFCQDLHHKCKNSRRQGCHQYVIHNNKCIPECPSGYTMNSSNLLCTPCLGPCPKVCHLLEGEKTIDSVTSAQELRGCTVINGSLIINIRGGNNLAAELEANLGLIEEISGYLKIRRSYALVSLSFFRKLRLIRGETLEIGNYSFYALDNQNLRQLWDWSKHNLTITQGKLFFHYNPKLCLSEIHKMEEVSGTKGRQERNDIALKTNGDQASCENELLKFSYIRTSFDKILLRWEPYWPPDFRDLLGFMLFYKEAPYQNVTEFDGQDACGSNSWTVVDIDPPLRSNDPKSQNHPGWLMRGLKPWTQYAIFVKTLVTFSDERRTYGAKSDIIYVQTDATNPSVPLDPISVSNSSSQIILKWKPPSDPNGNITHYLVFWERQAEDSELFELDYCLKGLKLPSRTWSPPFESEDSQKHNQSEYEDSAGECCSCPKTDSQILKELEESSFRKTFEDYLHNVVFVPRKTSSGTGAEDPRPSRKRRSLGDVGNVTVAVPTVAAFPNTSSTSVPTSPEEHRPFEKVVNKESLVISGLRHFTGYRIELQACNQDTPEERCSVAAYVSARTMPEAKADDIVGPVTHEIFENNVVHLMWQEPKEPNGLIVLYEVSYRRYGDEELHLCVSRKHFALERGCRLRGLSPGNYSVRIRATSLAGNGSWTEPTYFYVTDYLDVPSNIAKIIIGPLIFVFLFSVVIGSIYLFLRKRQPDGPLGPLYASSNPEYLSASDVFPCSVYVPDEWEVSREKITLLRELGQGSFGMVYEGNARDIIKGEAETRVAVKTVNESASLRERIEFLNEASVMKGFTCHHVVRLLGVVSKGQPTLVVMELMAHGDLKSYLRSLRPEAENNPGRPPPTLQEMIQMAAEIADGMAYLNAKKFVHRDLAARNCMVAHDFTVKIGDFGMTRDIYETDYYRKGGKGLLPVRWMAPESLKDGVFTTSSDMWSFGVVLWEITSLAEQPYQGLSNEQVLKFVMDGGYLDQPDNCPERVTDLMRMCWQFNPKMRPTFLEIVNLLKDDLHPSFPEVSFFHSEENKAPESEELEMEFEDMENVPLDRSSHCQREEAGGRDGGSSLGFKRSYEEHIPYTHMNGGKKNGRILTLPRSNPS

IGF-1R [10] = target: T1, IGF-1R; settings: cited from earlier work; remark: listed apart in the source
PDGFR = settings: intact cells; cited from earlier work
tumors = settings: nude mice; cited from earlier work
IGF-1R-positive tumors = settings: mice; cited from earlier work
[11] = rats; cited from earlier work
mouse lung fibroblasts = test: Western blot of signaling in IGF-stimulated lung fibroblasts; assay type: cell-based; settings: IGF-1 100 ng/ml
Description: Tyrosine phosphorylation of receptor tyrosine kinase substrates was evaluated. Mouse lung fibroblasts were serum-starved overnight and then stimulated with IGF-1 (100 ng/ml) for indicated times. Cells were lysed, and proteins separated by SDS-PAGE. Each membrane was blotted with indicated phospho-antibody then stripped and reblotted with antibody to total protein. Substrates include IGF-1R, IRS-1 and IRS-2. The tyrosine phosphorylated forms of the substrates are indicated by pIGF-1R, pIRS-1 and pIRS-2, respectively.
Tyrosine phosphorylation of receptor tyrosine kinase substrates was evaluated. Substrates include AKT, ERK. The tyrosine phosphorylated forms of the substrates are indicated by pAKT, pERK, respectively.
For Western Blot analyses, cells were grown to 70% confluence, placed in serum free medium overnight and then IGF-1 (100 ng/ml) was added for 5, 10, 15, 30 and 60 minutes. At indicated time points, cells were washed in ice-cold PBS and lysed in buffer containing 100 mM Tri-HCl (pH 7.4), 150 mM NaCl, 1 mM CaCl2, 0.1% SDS, 1% Triton-X, 0.1% NP-40, 1 mM […] (sodium vanadate), 1 mM NaF (sodium Fluoride) and protease inhibitor cocktail tablet (Roche). Protein concentrations were determined by the BCA assay (Pierce). Equal amounts of protein were separated by sodium dodecyl sulfate-polyacrylamide gel electrophoresis (SDS-PAGE), and electrophoretically transferred to PVDF membrane. Membranes were blocked with 5% nonfat dry milk/0.05% Tween-20/PBS for 2 hours, incubated with primary antibody for 2 hours at room temperature, washed with 0.05% Tween-20/PBS, incubated with horseradish peroxidase-conjugated secondary antibody (1:5000) for 2 h, washed with 0.05% Tween-20/PBS and then developed with enhanced chemiluminescence (ECL) technique (Amersham, England).

[12] = test system: primary mouse lung fibroblasts; test: proliferation assay (MTT); assay type: cell-based, C57BL6 mice
Description: Mouse lung fibroblasts from saline-treated mice (A) or bleomycin-treated mice (B) were plated in triplicate and serum-starved overnight followed by addition of IGF-1 (100 ng/ml), serum-free media (negative control), 10% FBS (positive control), and then incubated for indicated time. Cell proliferation was measured by MTT assay. Data are shown as mean OD570 nm±SD and are average of at least 4 independent experiments.
For proliferation assays, primary mouse lung fibroblasts were plated at 10,000 cells/100 μl in 96-well plates. After initial adhesion, medium was changed to serum free overnight and then IGF-1 (100 ng/ml) was added. As a positive control, cells were grown in 10% FBS; as a negative control, cell were grown in serum-free media. Cell proliferation was assayed at 48, 72 or 96 hours by colorimetric methyl thiazolyl tetrazolium (MTT) assay per manufacturer's direction (Qiang et al., Blood 103:301-308 (2004)). Optical density of plates was read on a Spectra Max 250 (Molecular Device, Sunnyvale, Calif.) at 570 nm. All experiments were done in triplicate and repeated three times.

In the case of “IGFBP-3: insulin-like growth factor-binding protein-3 (R&D Systems)”, the “apoptosis of primary human lung fibroblasts” value [1] is reported as “increased apoptosis was not observed” and the “apoptosis of primary lung epithelial cells” value [2] is reported as “increased apoptosis was not observed”.
For `CN1CCN([C@H]2C[C@@H](c3nc(-c4ccc5ccc(-c6ccccc6)nc5c4)c4c(N)nccn43)C2)CC1` [cis-3-[3-(4-methyl-piperazin-1-yl)-cyclobutyl]-1-(2-phenyl-quinolin-7-yl)-imidazo[1,5-a]pyrazin-8-ylamine], the “IGF-1R activity in vivo” value (IGF-1R [3]) is listed as “inhibit IGF-1R activity in vivo” and the “rise in blood sugar” value (IR [4]) is listed as “without causing any substantial rise in blood sugar”.
For `COc1cccc(-c2cc(=O)c3ccccc3o2)c1N` [PD98059, reference compound], the “effect on IGF-1-induced migration” value ([5]; IGF-1 100 ng/ml, A12 40 μg/ml preincubation) was “partially inhibited”.
In the case of “siRNA 2: 5'-GGUCUUCUCACACAUCGGCUU-3' (antisense; SEQ ID NO: 3) and 5'-GCCGAUGUGUGAGAAGACCUU-3' (sense; SEQ ID NO: 4) (listed as RNA, chemistry not given here)”, the “targeting of human IGF-1R mRNA” value (human IGF-1R mRNA) is listed as “effective to target human IGF-1R mRNA”.
In the case of “siRNA 1: 5'-GGGACCCUCCUCCGGAGCCAG-3' (antisense; SEQ ID NO: 1) and 5'-GGCUCCGGAGGAGGGUCCCCG-3' (sense; SEQ ID NO: 2) (listed as RNA, chemistry not given here)”, the “targeting of human IGF-1R mRNA” value (human IGF-1R mRNA) is given as “effective to target human IGF-1R mRNA”.
In the case of `N#C/C(=C\c1ccc(O)c(O)c1)C(=O)c1ccc(O)c(O)c1` [AG 538], the IC50 (IGF-1R [6]; cell free kinase assay, read-out: IC50 inhibition of IGF-1R) is given as 0.061 µM, the “stability of catechol moiety” value [7] is given as “unstable due to its vulnerability to oxidation” and the “receptor autophosphorylation and activation of downstream targets PKB and Erk2” value (IGF-1R [8]; cultured cells) is given as “inhibits receptor autophosphorylation”.
For `COc1cc([C@@H]2c3cc4c(cc3[C@H](O)[C@H]3COC(=O)[C@H]23)OCO4)cc(OC)c1OC` [PPT, podophyllotoxin], the cytotoxicity (β-tubulin) is listed as “cytotoxic”, the “effect on IR activity” value (IR [9]) is listed as “did not affect IR activity” and the “IC50 on IGF-1R activity” value (IGF-1R [10]) is listed as “sub-micromolar”.
In the case of `N#C/C(=C\c1ccc2oc(=O)[nH]c2c1)C(=O)c1ccc(O)c(O)c1` [AGL 2263], the “activity relative to parent compound AG 538 in cell free assays” value (IGF-1R [6]; cell free assays) is listed as “somewhat less active”, the “PKB activation by PDGFR” value (PDGFR) is listed as “did not affect” and the “activity relative to parent compound AG 538 in cell culture assays” value (IGF-1R [8]; cell culture assays) is listed as “comparable to the parent compound”. The IC50 (IGF-1R [8]; intact cells, read-out: IC50 inhibiting the activation of PKB in intact cells) was 6 µM.
For `COc1ccc(Cl)cc1NC(=O)Nc1cc(C)nc2ccccc12` [PQ401], the “growth rate of tumors” value (tumors) is listed as “reduce the growth rate of tumors”.
In the case of `COc1cc([C@@H]2c3cc4c(cc3[C@H](O)[C@H]3COC(=O)[C@@H]23)OCO4)cc(OC)c1OC` [PPP, picropodophyllin], the “effect on IR activity” value (IR [9]) is listed as “did not affect IR activity”, the “killing IGF-1R-positive tumors” value (IGF-1R-positive tumors) is listed as “effective at killing IGF-1R-positive tumors” and the LD50 [11] is listed as greater than 500 mg/kg. The “IC50 on IGF-1R activity” value (IGF-1R [10]) was “sub-micromolar”.
With “IGF-1: insulin-like growth factor 1, purchased from R&D Systems” the Akt phosphorylation (mouse lung fibroblasts) was “phosphorylated in response to IGF-1 stimulation by 15 minutes and persisted until 60 minutes”, the ERK phosphorylation (mouse lung fibroblasts) was “did not undergo phosphorylation” and the IRS-1 phosphorylation (mouse lung fibroblasts) was “did not change”. The IRS-2 phosphorylation (mouse lung fibroblasts) was “increased phosphorylation by 10 minutes that persisted until 30 minutes”, the “time to IGF-1R phosphorylation” value (mouse lung fibroblasts) was no more than 10 min and the “proliferation of normal mouse lung fibroblasts” value ([12]; IGF-1 50 or 100 ng/ml, serum-free, up to 96 h) was “did not increase proliferation; also recorded: increased proliferation was not observed”. The “proliferation of activated fibroblasts derived from bleomycin-treated mice” value ([12]; data not shown) was “can induce proliferation”, the increase in migration ([5]; IGF-1 100 ng/ml, FIG. 4) was 1.8 fold and the “migration of MLF in response to IGF-1” value ([5]; transwell filter, 4 hours, FIG. 5) was “increased migration”.

From patent US8178091B2, “Compositions and methods for the treatment of respiratory disorders” (University of Washington, priority 2007, dated 2012)
